# Source: ChEMBL document CHEMBL1641603, “Inhibition of β-carbonic anhydrases with ureido-substituted benzenesulfonamides” (Bioorg Med Chem Lett, 2011)
# Biological target: T1, PROBABLE TRANSMEMBRANE CARBONIC ANHYDRASE (CARBONATE DEHYDRATASE) (CARBONIC DEHYDRATASE) (Mycobacterium tuberculosis, UniProt P96878)
# T1 sequence (P96878 whole entry): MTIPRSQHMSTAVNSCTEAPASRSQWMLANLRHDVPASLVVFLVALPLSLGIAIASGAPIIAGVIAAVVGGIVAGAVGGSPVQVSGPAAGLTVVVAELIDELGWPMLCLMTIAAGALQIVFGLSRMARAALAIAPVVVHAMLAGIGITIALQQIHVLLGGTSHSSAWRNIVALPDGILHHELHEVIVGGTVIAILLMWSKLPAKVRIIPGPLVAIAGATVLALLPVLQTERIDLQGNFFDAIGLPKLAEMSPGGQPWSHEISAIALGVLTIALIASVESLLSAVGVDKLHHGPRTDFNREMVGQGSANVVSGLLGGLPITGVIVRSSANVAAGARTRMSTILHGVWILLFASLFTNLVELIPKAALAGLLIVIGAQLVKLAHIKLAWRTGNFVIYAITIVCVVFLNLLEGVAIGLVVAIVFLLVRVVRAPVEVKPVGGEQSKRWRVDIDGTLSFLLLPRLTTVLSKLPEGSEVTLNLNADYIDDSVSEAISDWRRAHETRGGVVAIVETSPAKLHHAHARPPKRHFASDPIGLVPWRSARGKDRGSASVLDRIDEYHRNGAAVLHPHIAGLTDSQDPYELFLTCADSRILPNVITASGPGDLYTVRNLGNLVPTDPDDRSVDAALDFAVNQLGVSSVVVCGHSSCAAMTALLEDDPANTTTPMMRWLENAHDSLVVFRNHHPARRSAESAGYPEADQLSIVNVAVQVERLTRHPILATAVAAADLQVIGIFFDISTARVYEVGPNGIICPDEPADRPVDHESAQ
smiles,measurement,value
Nc1ccc(S(N)(=O)=O)cc1 [SULFANILAMIDE],Ki,6.24 µM
